Publication PMC7501296, “Rapid and direct control of target protein levels with VHL-recruiting dTAG molecules” (Nature Communications, 2020)
Several values for one entry are separate records, joined by “and”; a condition that tells them apart may be missing. Identical values can stand only once.

Legend:
Format in all cases: cell-based
[1] = system: PATU-8902 LACZ-FKBP12^F36V clone; assay: Antiproliferation, PATU-8902 LACZ-FKBP12F36V clone, 3D-spheroid (CellTiter-Glo)
Method: (§1) Cell viability was assayed in 2D-adherent or ultra-low adherent 3D-spheroids using CellTiter-Glo (Promega)[6],[15]. Luminescence was measured on an Envision 2104 plate reader (PerkinElmer) and Fluostar Omega Reader (BMG Labtech) and data was analyzed using GraphPad PRISM v8. Synergy assessments were performed using CellTiter-Glo (Promega) with the following modifications to the protocol described in the ref. [34]. In brief, EWS502 cells were plated at 1000 cells per well in 50 µL of appropriate media in 384-well white culture plates (Corning) allowed to adhere overnight, and 100 nL of compounds were added using a Janus Workstation pin tool (PerkinElmer) for 72 h. Cell viability was measured by addition of 10 µL of CellTiter-glo (Promega), followed by incubation for 15 minutes at room temperature. Luminescence was measured on an Envision 2104 plate reader (PerkinElmer) and data was analyzed using GraphPad PRISM v8.

FKBP12^F36V-Nluc = biological target: T1, FKBP12^F36V-Nluc (Homo sapiens, UniProt P62942, F37V); assay: FKBP12F36V-Nluc dual luciferase assay (293FT); settings: 293FT FKBP12F36V-Nluc, 24 h
T1 construct: expressed in transfected cells; host or cells: 293FT
Method: (§2) Dual luciferase assays were performed using 293FT FKBP12^WT-Nluc and FKBP12^F36V-Nluc cells. In brief, cells were plated at 2000 cells per well in 20 µL of appropriate media in 384-well white culture plates (Corning), allowed to adhere overnight, and 100 nL of compounds were added using a Janus Workstation pin tool (PerkinElmer) for 24 h at 37 °C. To evaluate Fluc signal, plates were brought to room temperature, 20 µL of Dual-Glo Reagent (Promega) was added for 10 min and luminescence was measured on an Envision 2104 plate reader (PerkinElmer). Subsequently, 20 µL of Dual-Glo Stop & Glo Reagent (Promega) was added for 10 min and luminescence was again measured to capture Nluc signal. DMSO-normalized ratios of Nluc/Fluc signal was analyzed and plotted using GraphPad PRISM v8[6].

[2] = system: PATU-8902 LACZ-FKBP12^F36V clone; assay: Antiproliferation, PATU-8902 LACZ-FKBP12F36V clone, 2D-monolayer (CellTiter-Glo)
Method: as §1

[3] = system: PATU-8902 FKBP12^F36V-KRAS^G12V; KRAS^-/- clone; assay: Antiproliferation, PATU-8902 FKBP12F36V-KRASG12V; KRAS-/- clone, 2D-monolayer (CellTiter-Glo)
Method: as §1

[4] = system: PATU-8902 FKBP12^F36V-KRAS^G12V; KRAS^-/- clone; assay: Antiproliferation, PATU-8902 FKBP12F36V-KRASG12V; KRAS-/- clone, 3D-spheroid (CellTiter-Glo); settings: FKBP12F36V-KRASG12V, KRAS-/-, 3D-spheroid, replicate values
Method: as §1

FKBP12^WT-Nluc = biological target: T2, FKBP12^WT-Nluc (Homo sapiens, UniProt P62942); assay: FKBP12WT-Nluc dual luciferase assay (293FT); settings: 293FT FKBP12WT-Nluc, 24 h
T2 construct: expressed in transfected cells; host or cells: 293FT
Method: as §2

[5] = log10[compound] (M) -5.69897, replicate values
[6] = log10[compound] (M) -6.19897, replicate values
[7] = log10[compound] (M) -6.69897, replicate values
[8] = log10[compound] (M) -7.19897, replicate values
[9] = log10[compound] (M) -7.69897, replicate values
[10] = log10[compound] (M) -8.19897, replicate values
[11] = log10[compound] (M) -8.69897, replicate values
[12] = log10[compound] (M) -9.19897, replicate values
[13] = log10[compound] (M) -9.69897, replicate values
[14] = log10[compound] (M) -10.199, replicate values
[15] = log10[compound] (M) -5.30103, single replicates
[16] = log10[compound] (M) -5.80103, single replicates
[17] = log10[compound] (M) -6.30103, single replicates
[18] = log10[compound] (M) -6.80103, single replicates
[19] = log10[compound] (M) -7.30103, single replicates
[20] = log10[compound] (M) -7.80103, single replicates
[21] = log10[compound] (M) -8.30103, single replicates
[22] = log10[compound] (M) -8.80103, single replicates
[23] = log10[compound] (M) -9.30103, single replicates
[24] = log10[compound] (M) -9.80103, single replicates

T1 sequence (P62942 2-108 F37V limits assumed): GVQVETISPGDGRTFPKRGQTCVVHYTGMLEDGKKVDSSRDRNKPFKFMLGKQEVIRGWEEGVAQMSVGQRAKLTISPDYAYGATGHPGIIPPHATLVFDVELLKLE
T2 sequence (P62942 2-108 limits assumed): as the sequence (P62942 2-108 F37V limits assumed) above, with V36F counted along it

SMILES: CC[C@H](C(=O)N1CCCC[C@H]1C(=O)O[C@H](CCc1ccc(OC)c(OC)c1)c1ccccc1OCC(=O)NCCCCCCCCNc1ccc2c(c1)C(=O)N(C1CCCNC1=O)C2=O)c1cc(OC)c(OC)c(OC)c1 (stereo partly drawn) [dTAG-47-NEG]
- DMSO-normalized antiproliferation [1, 5]: 97.4751 and 103.304 and 87.3281 and 98.4167
- DMSO-normalized antiproliferation [1, 6]: 115.352 and 92.3949 and 111.46 and 98.7799
- DMSO-normalized antiproliferation [1, 7]: 115.675 and 135.633 and 120.527 and 101.762
- DMSO-normalized antiproliferation [1, 8]: 132.781 and 104.479 and 141.691 and 94.0763
- DMSO-normalized antiproliferation [1, 9]: 113.77 and 136.938 and 126.087 and 111.72
- DMSO-normalized antiproliferation [1, 10]: 141.265 and 116.402 and 127.835 and 120.491
- DMSO-normalized antiproliferation [1, 11]: 117.15 and 123.8 and 115.155 and 128.638
- DMSO-normalized antiproliferation [1, 12]: 109.537 and 110.734 and 119.818 and 124.491
- DMSO-normalized antiproliferation [1, 13]: 101.506 and 115.774 and 112.487 and 105.932
- DMSO-normalized antiproliferation [1, 14]: 91.3412 and 111.541 and 123.365 and 101.901
- DMSO-normalized ratio of Nluc/Fluc signal (FKBP12^F36V-Nluc; [15]): 107.204 and 133.65 and 125.111 and 106.713
- DMSO-normalized ratio of Nluc/Fluc signal (FKBP12^F36V-Nluc; [16]): 105.202 and 100.221 and 87.7709 and 98.1806
- DMSO-normalized ratio of Nluc/Fluc signal (FKBP12^F36V-Nluc; [17]): 114.516 and 112.689 and 63.1557 and 96.6176
- DMSO-normalized ratio of Nluc/Fluc signal (FKBP12^F36V-Nluc; [18]): 115.914 and 94.4993 and 79.2868 and 83.2258
- DMSO-normalized ratio of Nluc/Fluc signal (FKBP12^F36V-Nluc; [19]): 95.8358 and 90.9039 and 76.6637 and 114.52
- DMSO-normalized ratio of Nluc/Fluc signal (FKBP12^F36V-Nluc; [20]): 93.9184 and 139.979 and 82.2221 and 91.2143
- DMSO-normalized ratio of Nluc/Fluc signal (FKBP12^F36V-Nluc; [21]): 91.746 and 110.613 and 89.992 and 115.75
- DMSO-normalized ratio of Nluc/Fluc signal (FKBP12^F36V-Nluc; [22]): 108.43 and 84.8167 and 129.223 and 114.161
- DMSO-normalized ratio of Nluc/Fluc signal (FKBP12^F36V-Nluc; [23]): 128.159 and 120.38 and 100.065 and 103.942
- DMSO-normalized ratio of Nluc/Fluc signal (FKBP12^F36V-Nluc; [24]): 95.5174 and 90.4935 and 78.1755 and 112.193
- DMSO-normalized antiproliferation [2, 5]: 66.1984 and 57.9546 and 80.6556 and 62.9228
- DMSO-normalized antiproliferation [2, 6]: 65.6828 and 85.4625 and 78.6518 and 76.5663
- DMSO-normalized antiproliferation [2, 7]: 102.61 and 78.6871 and 110.55 and 102.23
- DMSO-normalized antiproliferation [2, 8]: 104.837 and 92.9898 and 109.382 and 132.676
- DMSO-normalized antiproliferation [2, 9]: 141.282 and 157.373 and 114.442 and 100.315
- DMSO-normalized antiproliferation [2, 10]: 95.0388 and 126.489 and 147.158 and 156.144
- DMSO-normalized antiproliferation [2, 11]: 96.771 and 104.289 and 112.53 and 88.7912
- DMSO-normalized antiproliferation [2, 12]: 117.441 and 113.828 and 97.736 and 88.8651
- DMSO-normalized antiproliferation [2, 13]: 104.694 and 108.624 and 153.334 and 121.648
- DMSO-normalized antiproliferation [2, 14]: 108.17 and 124.096 and 109.419 and 107.694
- DMSO-normalized antiproliferation [3, 5]: 74.7022 and 73.4799 and 58.8574 and 61.1381
- DMSO-normalized antiproliferation [3, 6]: 87.1466 and 90.577 and 94.4269 and 106.738
- DMSO-normalized antiproliferation [3, 7]: 79.5247 and 86.4598 and 105.965 and 87.3723
- DMSO-normalized antiproliferation [3, 8]: 125.17 and 98.7432 and 116.205 and 122.113
- DMSO-normalized antiproliferation [3, 9]: 90.1708 and 148.45 and 111.91 and 91.8745
- DMSO-normalized antiproliferation [3, 10]: 119.425 and 116.853 and 127.987 and 145.045
- DMSO-normalized antiproliferation [3, 11]: 87.2626 and 88.668 and 110.555 and 114.959
- DMSO-normalized antiproliferation [3, 12]: 135.954 and 152.721 and 117.778 and 94.3712
- DMSO-normalized antiproliferation [3, 13]: 100.893 and 117.34 and 101.502 and 86.7015
- DMSO-normalized antiproliferation [3, 14]: 99.6176 and 90.8045 and 95.2889 and 85.7881
- DMSO-normalized antiproliferation ([4]; log10[compound] (M) -5.69897): 82.482 and 87.6886 and 103.208 and 99.4884
- DMSO-normalized antiproliferation ([4]; log10[compound] (M) -6.19897): 113.805 and 93.9254 and 98.397 and 96.9436
- DMSO-normalized antiproliferation ([4]; log10[compound] (M) -6.69897): 123.227 and 117.041 and 133.19 and 118.656
- DMSO-normalized antiproliferation ([4]; log10[compound] (M) -7.19897): 81.3571 and 110.96 and 121.028 and 111.088
- DMSO-normalized antiproliferation ([4]; log10[compound] (M) -7.69897): 122.42 and 111.862 and 100.29 and 122.927
- DMSO-normalized antiproliferation ([4]; log10[compound] (M) -8.19897): 142.5 and 118.093 and 120.226 and 127.732
- DMSO-normalized antiproliferation ([4]; log10[compound] (M) -8.69897): 121.028 and 116.139 and 119.196 and 128.785
- DMSO-normalized antiproliferation ([4]; log10[compound] (M) -9.19897): 130.238 and 109.673 and 113.755 and 125.733
- DMSO-normalized antiproliferation ([4]; log10[compound] (M) -9.69897): 131.246 and 139.231 and 145.63 and 98.1297
- DMSO-normalized antiproliferation ([4]; log10[compound] (M) -10.199): 85.3442 and 82.6434 and 122.826 and 96.2419
- DMSO-normalized ratio of Nluc/Fluc signal (FKBP12^WT-Nluc; [15]): 112.983 and 133.743 and 109.836 and 118.552
- DMSO-normalized ratio of Nluc/Fluc signal (FKBP12^WT-Nluc; [16]): 88.6495 and 108.291 and 97.1172 and 97.9891
- DMSO-normalized ratio of Nluc/Fluc signal (FKBP12^WT-Nluc; [17]): 84.7288 and 98.5773 and 69.8656 and 85.4355
- DMSO-normalized ratio of Nluc/Fluc signal (FKBP12^WT-Nluc; [18]): 111.882 and 117.981 and 82.1602 and 97.6002
- DMSO-normalized ratio of Nluc/Fluc signal (FKBP12^WT-Nluc; [19]): 80.9372 and 116.345 and 96.4274 and 100.006
- DMSO-normalized ratio of Nluc/Fluc signal (FKBP12^WT-Nluc; [20]): 91.8268 and 107.899 and 89.5705 and 101.339
- DMSO-normalized ratio of Nluc/Fluc signal (FKBP12^WT-Nluc; [21]): 96.8786 and 106.696 and 109.119 and 135.476
- DMSO-normalized ratio of Nluc/Fluc signal (FKBP12^WT-Nluc; [22]): 100.791 and 113.508 and 74.3676 and 105.961
- DMSO-normalized ratio of Nluc/Fluc signal (FKBP12^WT-Nluc; [23]): 140.604 and 140.668 and 98.5907 and 115.954
- DMSO-normalized ratio of Nluc/Fluc signal (FKBP12^WT-Nluc; [24]): 87.4488 and 119.502 and 82.5871 and 99.1801
